Literature values in patent publication US5969096A (priority 1998, dated 1999).

Target: neuronal voltage-sensitive Ca2+ channels

Substance: ω-conotoxin GVIA
- affinity (Kd) for high-affinity targets: sub-picomolar
- time for 50% of the peptide to dissociate: more than 7 hours
